For ten molecules, inhibition results are on record in patent US20170015654A1, “PYRIDAZINE COMPOUND” (TAKEDA PHARMACEUTICAL COMPANY LIMITED, priority 2014, published 2017).

One test deals with T1, SCD (Rattus norvegicus, UniProt P07308).
T1 construct: the obtained precipitate other than the glycogen layer was used as the microsome fraction; from tissue; host or cells: rat liver microsome fraction
T1 sequence (P07308 1-358): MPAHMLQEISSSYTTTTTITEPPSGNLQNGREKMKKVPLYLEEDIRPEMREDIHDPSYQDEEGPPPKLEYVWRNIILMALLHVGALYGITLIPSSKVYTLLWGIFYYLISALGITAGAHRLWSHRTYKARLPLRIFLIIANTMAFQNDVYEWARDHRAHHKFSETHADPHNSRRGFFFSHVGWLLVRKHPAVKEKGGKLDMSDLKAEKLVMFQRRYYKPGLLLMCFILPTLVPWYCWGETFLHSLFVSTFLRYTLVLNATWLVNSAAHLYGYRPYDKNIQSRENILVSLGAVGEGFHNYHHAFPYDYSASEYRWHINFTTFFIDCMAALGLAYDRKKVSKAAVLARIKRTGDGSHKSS
The experiment in a line: Measurement of SCD inhibitory activity using microsome (TLC detection system). The following applies: 1 μM compound; rat liver microsome fraction; [14C]stearoyl-CoA; read-out: Rate of inhibition of SCD activity at compound concentration of 1 μM. The test is classed as biochemical. The method, then:
Testing Method: Measurement of SCD Inhibitory Activity Using Microsome (TLC Detection System)
A microsome fraction was produced and preserved as follows: first, the liver was excised from a rat, thoroughly washed with PBS and then chopped. A microsome preparation buffer (0.25 M sucrose, 10 mM Tris-HCl, pH 7.4, protease inhibitor cocktail (F. Hoffmann-La Roche, Ltd.)) was added to the chopped liver, and the cells were disrupted using a POLYTORON homogenizer on ice. The homogenate thus obtained by the disruption was centrifuged at 10,000×g at 4° C. for 30 minutes to collect a supernatant. The centrifugation operation described above was repeated again for the obtained supernatant to obtain a supernatant again. The obtained supernatant was centrifuged at 40,000×g at 4° C. for 60 minutes, and the obtained precipitate other than the glycogen layer was used as the microsome fraction. The protein concentration of the microsome fraction was measured using BCA Protein Assay Kit (Pierce/Thermo Fisher Scientific, Inc.), and the microsome fraction was cryopreserved at −80° C. until use.
The SCD inhibitory activity of each test compound was measured as follows: first, the test compound was diluted into 10 mM with DMSO to obtain a primary dilution. The obtained primary dilution was diluted 3/1000 by the addition of 3× buffer (300 mM potassium phosphate, pH 7.4, 450 mM KCl, 30 mM NaF, 9 mM MgCl2, 4.5 mM glutathione reduced form (Wako Pure Chemical Industries, Ltd.), 0.3% BSA fatty acid free (Sigma-Aldrich Corp.) to obtain a secondary dilution. The secondary dilution was dispensed at 10 μL/well to a polypropylene 96-deep well block. Then, the microsome fraction diluted using a microsome buffer (10 mM Tris-HCl, pH 7.5, 250 mM sucrose) was added thereto at 10 μL/well (containing 10 μg of the protein). An enzyme reaction solution containing [^14C]stearoyl-CoA (American Radiolabeled Chemicals, Inc.) diluted into […] using 9 mM NADH (Sigma-Aldrich Corp.) was further added thereto at 10 μL/well. 30 minutes thereafter, 2.5 N NaOH was added thereto at 10 μL/well. After the completion of the addition, the deep well block was provided with a plate seal and then left standing overnight in a heat sterilizer set to 55° C. Subsequently to the standing, fatty acid extraction from the sample was carried out in accordance with the Bligh & Dyer method. Specifically, 200 μL of a formic acid:methanol:chloroform (1:6:3) solution was added to the sample thus left standing, and then, the mixture was stirred while the single-layer state was maintained. Further, 120 μL of pure water was added to the mixture to separate it into two layers. After the separation, a 10 μL aliquot was separated from the lower layer, spotted on a reverse-phase TLC plate (RP-18, 1154230001, Merck KGaA), and developed with an acetonitrile:pure water:acetic acid (95:4.5:0.5) solution. After drying, the TLC plate was transferred to Imaging Plate (Fuji Photo Film) for 5 hours or longer. Detection was carried out using FLA7000 (GE Healthcare Japan Corp.), and the obtained spot images were digitalized using ImageQuant TL (GE Healthcare Japan Corp.) to determine the rate of inhibition of SCD activity (%).
In general terms: Liver microsomes are vesicles of endoplasmic reticulum, rich in cytochrome P450 enzymes.

The subject of the next test is HCT116 cells. Nature of the test: Measurement of growth inhibitory activity using HCT116 cell. The test is classed as cell-based. The following applies: Homo sapiens, HCT-116, 72 h, 1 μM compound, 3 days, CellTiter-Glo, read-out: Rate of inhibition of cell growth at compound concentration of 1 μM. The method, then:
Measurement of Growth Inhibitory Activity Using HCT116 Cell
Each compound was evaluated for its growth inhibitory activity against HCT116 cells (ATCC) by the following method: the HCT116 cells were inoculated at 900 cells/40 μL/well to a 384-well white plate (Greiner Bio-one) and maintained in an assay medium (RPMI medium (Wako Pure Chemical Industries, Ltd.) containing 2% fetal bovine serum, 50 units/mL penicillin and 50 μg/mL streptomycin (Invitrogen Corp.)). On the next day, the test compound dissolved in dimethyl sulfoxide (DMSO) was dispensed to the plate using TECAN D300 digital dispenser (Tecan Trading AG). Then, the concentration of DMSO in the medium was adjusted to 0.1% by the addition of DMSO. The HCT116 cells supplemented with the compound were incubated at 37° C. in a 5% CO2 environment (test compound addition group).
Also, the same reaction as above was carried out without the addition of the test compound (test compound non-addition group).
Further, the same reaction as above was carried out on condition that neither the HCT116 cells nor the test compound were added (control group).
After 3 days, 20 μL of CellTiter-Glo reagent (Promega Corp.) was added to each well, and the mixture was stirred for 10 minutes. Then, the light emission of each well was measured using ARVO MX1420 (PerkinElmer, Inc.).
The rate of inhibition of HCT116 cell growth (%) was determined according to the following calculation expression:
Rate of inhibition of cell growth=(1−(Light emission of the test compound addition group−Light emission of the control group)/(Light emission of the test compound non-addition group−Light emission of the control group))×100
Background: ATP-based viability assays read luminescence as a measure of living cells.

For `N#CC1(c2ccc(S(F)(F)(F)(F)F)cc2)CCN(c2ccc(-c3nnc(CO)o3)nn2)CC1` [Example 58, 1-(6-(5-(Hydroxymethyl)-1,3,4-oxadiazol-2-yl)pyridazin-3-yl)-4-(4-(pentafluorosulfanyl)phenyl)piperidine-4-carbonitrile], the inhibition at 1 µM on SCD was determined as 92%; in the test on HCT116 cells, 88%.
For `OCc1noc(-c2ccc(N3CCC(c4ccc(C(F)(F)F)cc4)(C(F)(F)F)CC3)nn2)n1` [Example 82, (5-(6-(4-(Trifluoromethyl)-4-(4-(trifluoromethyl)phenyl)piperidin-1-yl)pyridazin-3-yl)-1,2,4-oxadiazol-3-yl)methanol] the same measures were 95% and 89%.
For `OCc1nnc(-c2ccc(N3CCC(c4ccc(C(F)(F)F)cc4)(C(F)(F)F)CC3)nn2)o1` [Example 84, (5-(6-(4-(Trifluoromethyl)-4-(4-(trifluoromethyl)phenyl)piperidin-1-yl)pyridazin-3-yl)-1,3,4-oxadiazol-2-yl)methanol] the same measures were 93% and 88%.
For `COC1(c2ccc(S(F)(F)(F)(F)F)cc2)CCN(c2ccc(-c3nnc(CO)o3)nn2)CC1` [Example 93, (5-(6-(4-Methoxy-4-(4-(pentafluorosulfanyl)phenyl)piperidin-1-yl)pyridazin-3-yl)-1,3,4-oxadiazol-2-yl)methanol] the same measures were 94% and 85%.
As to `N#CC1(c2ccc(S(F)(F)(F)(F)F)cc2)CCN(c2ccc(-c3nc(CO)ns3)nn2)CC1` [Example 108, 1-(6-(3-(Hydroxymethyl)-1,2,4-thiadiazol-5-yl)pyridazin-3-yl)-4-(4-(pentafluorosulfanyl)phenyl)piperidine-4-carbonitrile], the values for the inhibition at 1 µM on SCD and in the test with HCT116 cells were 95% and 90%, respectively.
For `N#CC1(c2ccc(S(F)(F)(F)(F)F)cc2)CCN(c2ccc(-c3nnc(CO)s3)nn2)CC1` [Example 109, 1-(6-(5-(Hydroxymethyl)-1,3,4-thiadiazol-2-yl)pyridazin-3-yl)-4-(4-(pentafluorosulfanyl)phenyl)piperidine-4-carbonitrile] the same measures were 93% and 88%.
For `COC1(c2ccc(S(F)(F)(F)(F)F)cc2)CCN(c2ccc(-c3nc(CO)ns3)nn2)CC1` [Example 110, (5-(6-(4-Methoxy-4-(4-(pentafluorosulfanyl)phenyl)piperidin-1-yl)pyridazin-3-yl)-1,2,4-thiadiazol-3-yl)methanol] the same measures were 94% and 89%.
For `COC1(c2ccc(S(F)(F)(F)(F)F)cc2)CCN(c2ccc(-c3nnc(CO)s3)nn2)CC1` [Example 111, (5-(6-(4-Methoxy-4-(4-(pentafluorosulfanyl)phenyl)piperidin-1-yl)pyridazin-3-yl)-1,3,4-thiadiazol-2-yl)methanol] the same measures were 96% and 86%.
With `OCc1nsc(-c2ccc(N3CCC(c4ccc(C(F)(F)F)cc4)(C(F)(F)F)CC3)nn2)n1` [Example 112, (5-(6-(4-(Trifluoromethyl)-4-(4-(trifluoromethyl)phenyl)piperidin-1-yl)pyridazin-3-yl)-1,2,4-thiadiazol-3-yl)methanol], the inhibition at 1 µM on SCD came to 96%; in the test on HCT116 cells, 90%.
For `OCc1nnc(-c2ccc(N3CCC(c4ccc(C(F)(F)F)cc4)(C(F)(F)F)CC3)nn2)s1` [Example 113, (5-(6-(4-(Trifluoromethyl)-4-(4-(trifluoromethyl)phenyl)piperidin-1-yl)pyridazin-3-yl)-1,3,4-thiadiazol-2-yl)methanol] the same measures were 95% and 84%.
